From US6329377A, “Ketomethylene group-containing cysteine and serine protease inhibitors” (Cephalon, Inc., priority 2000, dated 2001) come the findings set out here.

Broadly, the pIC50 is the negative decadic logarithm of the IC50, by convention in mol/L.

pIC50: −log10 of the molar value.

Holding throughout (assay type): biochemical
In one assay the target is T1, α-chymotrypsin (Bos taurus, UniProt P00766).
T1 construct: purchased Sigma Chem. Co. C-3142
Kind of assay: Inhibition of α-chymotrypsin. As to conditions: 0.03 mM Succ-Ala-Ala-Pro-Phe-AMC; for inhibition at 10 µM: pH 7.5, 10 μM, read-out: Chymotrypsin % I @. The procedure:
(§1) To evaluate inhibitory activity, stock solutions (40 times concentrated) of each compound to be tested were prepared in 100% anhydrous DMSO and 5 μL of each inhibitor preparation were aliquoted into each of three wells of a 96-well plate. Calpain I, prepared by a modification of the method of W. J. Lee et al. (Biochem. Internatl. 22: 163-171 (1990)), was diluted into assay buffer (i.e., 50 mM Tris, 50 mM NaCl, 1 mM EDTA, 1 mM EGTA, and 5 mM-mercaptoethanol, pH 7.5 including 0.2 mM Succ-Leu-Tyr-MNA) and 175 μL aliquoted into the same wells containing the independent inhibitor stocks as well as to positive control wells containing 5 μL DMSO, but no compound. To start the reaction, 20 μL of 50 mM CaCl2 in assay buffer was added to all wells of the plate, excepting three, which were used as background signal baseline controls. Substrate hydrolysis was monitored every 5 minutes for a total of 30 minutes using a Fluoroskan II fluorescence plate reader. Substrate hydrolysis in the absence of inhibitor was linear for up to 15 minutes.
(§2) Inhibition of calpain I activity was calculated as the percent decrease in the rate of substrate (S) hydrolysis in the presence of inhibitor (I) relative to the rate in its absence (o). Comparison between the inhibited and control rates was made within the linear range for substrate hydrolysis. For screening, compounds were tested at 10 μM. Compounds having 50% inhibition at 10 μM were considered active. The IC50s of inhibitors (concentration yielding 50% inhibition) were determined from the percent decrease in the rates of substrate hydrolysis in the presence of five to seven different concentrations of the test compound. The results were plotted as % inhibition versus log inhibitor concentration and the IC50 was calculated from linear regression of the data. Apparent second order rate constants were determined from analysis of reaction progress curves under pseudo-first order conditions. Each determination represents the means of three or more independent single cuvette analyses continually monitored via a Perkin-Elmer LS50B spectrofluorimeter. The rate of inhibition of hydrolysis was obtained by fitting the curve to the exponential equation (1):
(§3) Additionally, because α-chymotrypsin is not a calcium sensitive enzyme and is constitutively active, following addition of inhibitor stocks to the 96 well plates, 100 μl of a 2-fold concentrated stock of enzyme in dilution buffer was first added and the reaction started by addition of 100 μl of a 2-fold concentrated stock of substrate in assay buffer. Substrate hydrolysis was monitored every 5 minutes up to 30 minutes using a Fluoroskan II ([…]).

For the next assay, the target named is T2, thrombin (Homo sapiens, UniProt P00734).
T2 construct: purchased Sigma Chem. Co. T-7009
The assay can be described thus: Inhibition of thrombin. The settings on record: 25 μM Bz-Phe-Val-Arg-AMC; for inhibition at 10 µM: pH 7.5, read-out: Thrombin % I @ 10 uM. The procedure: as §1, §2, §3
Inhibition of thrombin (Sigma Chem. Co. Cat. #T-7009) was evaluated as described for chymotrypsin except that the assay was performed in 50 mM Tris, 10 mM CaCl2, pH 7.5 and the substrate was 25 μM Bz-Phe-Val-Arg-AMC (Bachem cat#I-1080).

Assay [1] concerns the target T3, Calpain I (Homo sapiens, UniProt P07384).
T3 construct: made in house
T3 sequence (P07384 1-714): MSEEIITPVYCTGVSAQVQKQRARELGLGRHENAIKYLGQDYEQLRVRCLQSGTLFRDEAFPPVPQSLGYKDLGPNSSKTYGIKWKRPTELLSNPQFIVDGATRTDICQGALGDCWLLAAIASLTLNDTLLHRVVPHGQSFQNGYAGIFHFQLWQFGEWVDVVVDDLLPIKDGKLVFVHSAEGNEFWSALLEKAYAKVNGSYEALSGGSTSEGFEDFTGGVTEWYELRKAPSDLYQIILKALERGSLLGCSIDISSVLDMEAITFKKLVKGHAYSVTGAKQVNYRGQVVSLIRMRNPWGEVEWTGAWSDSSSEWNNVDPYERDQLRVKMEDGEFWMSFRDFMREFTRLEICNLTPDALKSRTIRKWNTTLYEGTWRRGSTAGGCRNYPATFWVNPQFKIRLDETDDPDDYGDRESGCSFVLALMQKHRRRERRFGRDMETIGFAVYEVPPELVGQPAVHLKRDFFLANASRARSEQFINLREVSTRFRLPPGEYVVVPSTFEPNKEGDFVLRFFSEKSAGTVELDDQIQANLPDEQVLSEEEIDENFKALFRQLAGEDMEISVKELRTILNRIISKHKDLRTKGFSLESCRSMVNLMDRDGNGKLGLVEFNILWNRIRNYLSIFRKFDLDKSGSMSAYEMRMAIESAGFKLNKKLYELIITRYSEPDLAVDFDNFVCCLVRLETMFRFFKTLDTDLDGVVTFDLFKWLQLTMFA
T3 sequence (P04632 1-268 partner): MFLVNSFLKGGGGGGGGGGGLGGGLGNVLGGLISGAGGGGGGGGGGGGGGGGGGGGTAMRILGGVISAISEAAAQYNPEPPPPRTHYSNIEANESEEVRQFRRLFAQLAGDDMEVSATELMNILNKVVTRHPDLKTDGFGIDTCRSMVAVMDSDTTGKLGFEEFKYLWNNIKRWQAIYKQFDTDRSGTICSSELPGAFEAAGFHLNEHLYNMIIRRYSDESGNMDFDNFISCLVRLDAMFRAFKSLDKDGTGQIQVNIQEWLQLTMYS
The assay can be described thus: Rate of inactivation of calpain I (second order rate constant). As to conditions: pH 7.5, pseudo-first order conditions, read-out: Calpain Inactivation Rates. The procedure:
as §1
as §2, with “The IC50s of inhibitors (concentration yielding 50% inhibition) were determined from the percent decrease in the rates of substrate hydrolysis in the presence of five to seven different concentrations of the test compound.” left out, “The rate of inhibition of hydrolysis was obtained by fitting the curve to the exponential equation (1):” left out
where y is the product formed at time t. […] The apparent second order rate constant kapp was determined as Kobs /[I]. […]

The target of assay [2] is T3, Calpain I. The assay can be described thus: Inhibition of calpain I activity (IC50, fluorescence plate reader). As to conditions: substrate 0.2 mM Succ-Leu-Tyr-MNA, pH 7.5. Here is the method:
as §1
as §2, with “(1): […]” for “(1):”

The target in the next assay is T4, cathepsin B (Homo sapiens, UniProt P07858).
T4 construct: purchased Calbiochem 219364
Kind of assay: Inhibition of cathepsin B. The settings on record: Cbz-Phe-Arg-AMC 0.1 mM; for inhibition at 1 µM: pH 6, 1 uM, read-out: Cat B % I @ 1 uM.

A further assay deals with T5, cathepsin L (Homo sapiens, UniProt P07711).
T5 construct: purchased Calbiochem 219402
Kind of assay: Inhibition of cathepsin L. The settings on record: Cbz-Phe-Arg-AMC 0.006 mM; for inhibition at 1 µM: pH 6, 1 uM, read-out: Cat L % I @ 1 uM.

T5 sequence (P07711 114-288 limits assumed): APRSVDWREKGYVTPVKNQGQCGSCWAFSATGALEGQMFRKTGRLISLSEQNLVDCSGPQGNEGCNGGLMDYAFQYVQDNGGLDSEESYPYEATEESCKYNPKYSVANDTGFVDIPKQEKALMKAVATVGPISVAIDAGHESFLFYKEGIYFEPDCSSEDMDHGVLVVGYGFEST
T5 sequence (P07711 292-333 limits assumed): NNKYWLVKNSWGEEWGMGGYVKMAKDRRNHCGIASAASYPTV

Turning to `CC(C)CC(CC(=O)C1c2ccccc2Oc2ccccc21)C(=O)NC(Cc1ccccc1)C(=O)CF` (racemic) [Compound 14b, Xanthene-COCH2 CH(iBu)CO-Phe-CH2 F], the inhibition at 10 µM came to 98% on α-chymotrypsin and 9% on thrombin. Besides, the kinact/KI at Calpain I [1] was 75600 M⁻¹ s⁻¹.

As for `CCNC(=O)C(=O)C(CC)NC(=O)C(CC(=O)CCCCc1ccccc1)CC(C)C` (centres unmarked) [Compound 8a, Ph(CH2)4 COCH2 CH(iBu)CO-Abu-CONHEt], the inhibition at 10 µM at α-chymotrypsin and on thrombin was 0% in each case. The molecule further had a pIC50 against Calpain I [2] of 5.07. For the same molecule, the inhibition at 1 µM on cathepsin B is 10%; at cathepsin L it was 81%.

As to `CCC(C(=O)CC(CC(C)C)C(=O)NC(Cc1ccccc1)C(=O)CF)c1ccccc1` (centres unmarked) [Compound 14a, CH3 CH2 CH(Ph)COCH2 CH(iBu)CO-Phe-CH2 F], the inhibition at 10 µM at α-chymotrypsin was found to be 33%; on thrombin, 0%. Besides, the kinact/KI at Calpain I [1] worked out at 5800 M⁻¹ s⁻¹.

On to `CCNC(=O)C(=O)C(CC(C)C)NC(=O)C(CC(=O)C1c2ccccc2Oc2ccccc21)CC(C)C` (centres unmarked) [Compound 8f, Xanthene-CO(CH2 CH(iBu)CO-Leu-CONHEt], for which the inhibition at 10 µM on α-chymotrypsin is 93%; at thrombin, 13%. The same molecule had a pIC50 on Calpain I [2] of 6.89. In addition, the inhibition at 1 µM at cathepsin B turned out to be 98%; at cathepsin L, 100%.

As for `CC(C)CC(CC(=O)N1CCc2ccccc2C1)C(=O)N[C@H](C=O)Cc1ccccc1` (single isomer, unassigned) [Compound 16f-II, 2-THIQ-COCH2 CH(iBu)CO-Phe-H (Diastereomer)], at α-chymotrypsin (10 μM, pH 7.5), the “Chymotrypsin % I @” value amounted to 12%. The pIC50 against Calpain I [2] is 6.00. Further, the “Thrombin % I @ 10 uM” value at thrombin (pH 7.5) is on record as 0%. Also, the “Cat B % I @ 1 uM” value on cathepsin B (1 uM, pH 6.0) was found to be 71%. In addition, the “Cat L % I @ 1 uM” value at cathepsin L (1 uM, pH 6.0) came to 52%.

Regarding `CC(C)CC(CC(=O)[C@H](CC(C)C)NC(=O)OCc1ccccc1)C(=O)NC(Cc1ccccc1)C(=O)CF` (some centres unmarked) [Compound 14c, Z-Leu-CH2 CH(iBu)CO-Phe-CH2 F], the inhibition at 10 µM stood at 82% at α-chymotrypsin and 0% on thrombin. The kinact/KI at Calpain I [1] was found to be 16800 M⁻¹ s⁻¹.

`CCNC(=O)C(=O)C(CC)NC(=O)C(CC(=O)C(c1ccccc1)c1ccccc1)CC(C)C` (centres unmarked) [Compound 8c, Ph2 CHCOCH2 CH(iBu)CO-Abu-CONHEt]: the results for the inhibition at 10 µM at α-chymotrypsin and at thrombin were 6% and 0%, respectively. Moreover, the pIC50 against Calpain I [2] was 5.76. The inhibition at 1 µM on cathepsin B and at cathepsin L was 100% in each case.
